Measurements from patent publication US10010614B2, “Derivatives of GLP-1 like peptides, and uses thereof” (Novo Nordisk A/S, priority 2013, dated 2018).
Where two headings read alike, the source gives them in different places. Numbered stars: 1 amine (or outer) side, 2 acyl side, 3 side chain; on linkers, the order of the positions; unused ones are H or OH. Square brackets hold non-standard residues; d marks the D form. Side chains are listed from the residue outwards. Peptide text beside a SMILES is read from it. * marks the point of attachment. C20 diacid = O=C(O)CCCCCCCCCCCCCCCCCCC(=O)*; γGlu = O=C(O)[C@H](CCC(=O)[*:2])N[*:1]; Desaminohistidyl = O=C(CCc1c[nH]cn1)*; Trx = NC[C@H]1CC[C@H](C(=O)O)CC1; AEEA = NCCOCCOCC(=O)O; Aib = CC(C)(N)C(=O)O

Legend:
human GLP-1 receptor [1] = target: T1, human GLP-1 receptor (Homo sapiens, UniProt P43220); assay: In vitro potency, CRE luciferase reporter gene assay in BHK cells expressing the human GLP-1 receptor; assay type: cell-based; conditions: whole cell reporter gene assay, 3 h incubation, no HSA, averages of at least two replicates
T1 construct: expressed in transfected cells; host or cells: membranes prepared from BHK cells (parent line BHKTS13), clone FCW467-12A
T1 sequence (P43220 24-463): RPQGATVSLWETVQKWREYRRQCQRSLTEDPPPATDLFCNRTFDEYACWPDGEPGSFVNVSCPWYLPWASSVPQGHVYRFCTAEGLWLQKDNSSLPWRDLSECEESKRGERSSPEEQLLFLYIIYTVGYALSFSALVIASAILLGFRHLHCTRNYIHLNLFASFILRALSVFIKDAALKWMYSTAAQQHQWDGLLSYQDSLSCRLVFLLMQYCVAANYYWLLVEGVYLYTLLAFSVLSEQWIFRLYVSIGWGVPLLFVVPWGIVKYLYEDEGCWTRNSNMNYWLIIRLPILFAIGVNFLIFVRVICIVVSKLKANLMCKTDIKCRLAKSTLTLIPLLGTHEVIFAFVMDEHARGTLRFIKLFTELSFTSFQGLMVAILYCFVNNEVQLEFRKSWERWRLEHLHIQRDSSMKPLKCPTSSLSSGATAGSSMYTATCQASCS
Method: The purpose of this example is to test the activity, or potency, of the GLP-1 derivatives in vitro. The in vitro potency is the measure of human GLP-1 receptor activation in a whole cell assay.
Semaglutide was included for comparison.
In vitro potency was determined by measuring the response of the human GLP-1 receptor in a reporter gene assay. The assay was performed in a stably transfected BHK cell line that expresses the human GLP-1 receptor and contains the DNA for the cAMP response element (CRE) coupled to a promoter and the gene for firefly luciferase (CRE luciferase). When the human GLP-1 receptor is activated it results in the production of cAMP, which in turn results in the luciferase protein being expressed. When assay incubation is completed the luciferase substrate (luciferin) is added and the enzyme converts luciferin to oxyluciferin to produce bioluminescence. The luminescence is measured as the readout for the assay.
The cells used in this assay (clone FCW467-12A/KZ10-1) were BHK cells with BHKTS13 as a parent cell line. The cells were derived from a clone (FCW467-12A) that expresses the human GLP-1 receptor and were established by further transfection with CRE luciferase to obtain the current clone.
The cells were cultured at 5% CO2 in Cell Culture Medium. They were aliquoted and stored in liquid nitrogen. Before each assay an aliquot is taken up and washed twice in PBS before being suspended at the desired concentration in the assay specific buffer. For 96-well plates the suspension was made to give a final concentration of 5×10^3 cells/well.
The following chemicals were used in the assay: Pluronic F-68 (10%) (Gibco 2404), human serum albumin (HSA) (Sigma A9511), ovalbumin (Sigma A5503), DMEM w/o phenol red (Gibco 11880-028), 1 M Hepes (Gibco 15630), Glutamax 100× (Gibco 35050) and steadylite plus (PerkinElmer 6016757).
Cell Culture Medium consisted of DMEM medium with 10% FBS (Fetal Bovine Serum; Invitrogen 16140-071), 1 mg/ml G418 (Invitrogen 15140-122), 240 nM MTX (methotrexate; Sigma M9929) and 1% pen/strep (penicillin/streptomycin; Invitrogen 15140-122).
Assay Medium consisted of DMEM w/o phenol red, 10 mM Hepes and 1× Glutamax. The Assay Buffer consisted of 2% ovalbumin and 0.2% Pluronic F-68 in Assay Medium.
1) Cell stocks were thawed in a 37° C. water bath.
2) Cells were washed three times in PBS.
3) The cells were counted and adjusted to 5×10^3 cells/50 μl (1×10^5 cells/ml) in Assay Medium. A 50 μl aliquot of cells was transferred to each well in the assay plate.
4) Stocks of the test compounds and reference compounds were diluted to a concentration of 0.2 μM in Assay Buffer. Compounds were diluted 10-fold to give the following concentrations: 2×10^−7 M, […]; 2×10^−9 M, 2×10^−10 M, 2×10^−11 M, 2×10^−12 M, 2×10^−13 M, and 2×10^−14 M. 5) A 50 μl aliquot of compound or blank was transferred from the dilution plate to the assay plate. Compounds were tested at the following final concentrations: 1×10^−7 M, 1×10^−8 M; 1×10^−9 M, 1×10^−10 M, 1×10^−11 M, 1×10^−12 M, 1×10^−13 M, and 1×10^−14 M. 6) The assay plate was incubated for 3 h in a 5% CO2 incubator at 37° C. 7) The assay plate was removed from the incubator and allowed to stand at room temperature for 15 min. 8) A 100 μl aliquot of steadylite plus reagent was added to each well of the assay plate (reagent was light sensitive). 9) Each assay plate was covered with aluminum foil to protect it from light and shaken for 30 min at room temperature. 10) Each assay plate was read in a Packard TopCount NXT instrument. Calculations and Results
The data from the TopCount instrument were transferred to GraphPad Prism software. The software performs a non-linear regression (log(agonist) vs response).
A minimum of two replicates was measured for each sample. The reported values are averages of the replicates.

human GLP-1 receptor [2] = target: T1, human GLP-1 receptor; assay: GLP-1 receptor binding, competitive binding assay (125I-GLP-1, SPA) on isolated membranes;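 also: test compounds added at a range of concentrations to membranes from cells expressing the human GLP-1 receptor, scored by displacement of labelled ligand, read with WGA SPA beads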
[3] = High HSA IC50 (nM), high serum albumin (2.0% HSA final assay concentration)
[4] = Low HSA IC50 (nM), low serum albumin (max. 0.001% final assay concentration)
[5] = high serum albumin (2.0% HSA final assay concentration), read-out: High HSA IC50
[6] = low serum albumin (max. 0.001% final assay concentration), read-out: Low HSA IC50

Compound | EC50 (human GLP-1 receptor [1]) | IC50 (human GLP-1 receptor [2]; [3]) | IC50 (human GLP-1 receptor [2]; [4]) | IC50 (human GLP-1 receptor [2]; [5]) | IC50 (human GLP-1 receptor [2]; [6])
CC[C@H](C)[C@H](NC(=O)[C@H](Cc1ccccc1)NC(=O)[C@H](CCC(=O)O)NC(=O)[C@H](CCCNC(=N)N)NC(=O)[C@H](C)NC(=O)[C@H](C)NC(=O)[C@H](CCC(N)=O)NC(=O)[C@H](CCC(=O)O)NC(=O)[C@H](CCC(=O)O)NC(=O)[C@H](CC(C)C)NC(=O)[C@H](Cc1ccc(O)cc1)NC(=O)[C@H](CO)NC(=O)[C@H](CO)NC(=O)[C@@H](NC(=O)[C@H](CC(=O)O)NC(=O)[C@H](CO)NC(=O)[C@@H](NC(=O)[C@H](Cc1ccccc1)NC(=O)[C@@H](NC(=O)CNC(=O)[C@H](CCC(=O)O)NC(=O)C(C)(C)NC(=O)[C@@H](N)Cc1c[nH]cn1)[C@@H](C)O)[C@@H](C)O)C(C)C)C(=O)N[C@@H](C)C(=O)N[C@@H](Cc1c[nH]c2ccccc12)C(=O)N[C@@H](CC(C)C)C(=O)N[C@H](C(=O)N[C@@H](CCCNC(=N)N)C(=O)NCC(=O)N[C@@H](CCCCNC(=O)COCCOCCNC(=O)COCCOCCNC(=O)CC[C@H](NC(=O)[C@H]1CC[C@H](CNC(=O)CCCCCCCCCCCCCCCCCCC(=O)O)CC1)C(=O)O)C(=O)NCC(=O)N1CCC[C@H]1C(=O)N[C@@H](C)C(=O)N[C@@H](CO)C(=O)N[C@@H](CCC(=O)O)C(=O)N[C@@H](CCCCNC(=O)COCCOCCNC(=O)COCCOCCNC(=O)CC[C@H](NC(=O)[C@H]1CC[C@H](CNC(=O)CCCCCCCCCCCCCCCCCCC(=O)O)CC1)C(=O)O)C(=O)O)C(C)C [Example 15] (H-H[Aib]EGTFTSDVSSYLEEQAAREFIAWLVRGK([AEEA-AEEA-γGlu-Trx-C20 diacid])GPASEK([AEEA-AEEA-γGlu-Trx-C20 diacid])-OH) | 0.02 nM | 928 nM | 1.6 nM |  | 
CC[C@H](C)[C@H](NC(=O)[C@H](Cc1ccccc1)NC(=O)[C@H](CCC(=O)O)NC(=O)[C@H](CCCNC(=N)N)NC(=O)[C@H](C)NC(=O)[C@H](C)NC(=O)[C@H](CCC(N)=O)NC(=O)[C@H](CCC(=O)O)NC(=O)[C@H](CCC(=O)O)NC(=O)[C@H](CC(C)C)NC(=O)[C@H](Cc1ccc(O)cc1)NC(=O)[C@H](CO)NC(=O)[C@H](CO)NC(=O)[C@@H](NC(=O)[C@H](CC(=O)O)NC(=O)[C@H](CO)NC(=O)[C@@H](NC(=O)[C@H](Cc1ccccc1)NC(=O)[C@@H](NC(=O)CNC(=O)[C@H](CCC(=O)O)NC(=O)C(C)(C)NC(=O)[C@@H](N)Cc1c[nH]cn1)[C@@H](C)O)[C@@H](C)O)C(C)C)C(=O)N[C@@H](C)C(=O)N[C@@H](Cc1c[nH]c2ccccc12)C(=O)N[C@@H](CC(C)C)C(=O)N[C@H](C(=O)N[C@@H](CCCNC(=N)N)C(=O)NCC(=O)N[C@@H](CCCCNC(=O)COCCOCCNC(=O)COCCOCCNC(=O)CC[C@H](NC(=O)[C@H]1CC[C@H](CNC(=O)CCCCCCCCCCCCCCCCCCC(=O)O)CC1)C(=O)O)C(=O)NCC(=O)N[C@@H](CCC(=O)O)C(=O)NCC(=O)N1CCC[C@H]1C(=O)N[C@@H](C)C(=O)N[C@@H](CCCCNC(=O)COCCOCCNC(=O)COCCOCCNC(=O)CC[C@H](NC(=O)[C@H]1CC[C@H](CNC(=O)CCCCCCCCCCCCCCCCCCC(=O)O)CC1)C(=O)O)C(=O)O)C(C)C [Example 16] (H-H[Aib]EGTFTSDVSSYLEEQAAREFIAWLVRGK([AEEA-AEEA-γGlu-Trx-C20 diacid])GEGPAK([AEEA-AEEA-γGlu-Trx-C20 diacid])-OH) | 0.025 nM | 602 nM | 1.4 nM |  | 
CC[C@H](C)[C@H](NC(=O)[C@H](Cc1ccccc1)NC(=O)[C@H](CCC(=O)O)NC(=O)[C@H](CCCNC(=N)N)NC(=O)[C@H](C)NC(=O)[C@H](C)NC(=O)[C@H](CCC(N)=O)NC(=O)[C@H](CCC(=O)O)NC(=O)[C@H](CCC(=O)O)NC(=O)[C@H](CC(C)C)NC(=O)[C@H](Cc1ccc(O)cc1)NC(=O)[C@H](CO)NC(=O)[C@H](CO)NC(=O)[C@@H](NC(=O)[C@H](CC(=O)O)NC(=O)[C@H](CO)NC(=O)[C@@H](NC(=O)[C@H](Cc1ccccc1)NC(=O)[C@@H](NC(=O)CNC(=O)[C@H](CCC(=O)O)NC(=O)C(C)(C)NC(=O)[C@@H](N)Cc1c[nH]cn1)[C@@H](C)O)[C@@H](C)O)C(C)C)C(=O)N[C@@H](C)C(=O)N[C@@H](Cc1c[nH]c2ccccc12)C(=O)N[C@@H](CC(C)C)C(=O)N[C@H](C(=O)N[C@@H](CCCNC(=N)N)C(=O)NCC(=O)N[C@@H](CCCNC(=N)N)C(=O)NCC(=O)N[C@@H](CCCCNC(=O)COCCOCCNC(=O)COCCOCCNC(=O)COCCOCCNC(=O)COCCOCCNC(=O)CC[C@H](NC(=O)CCCCCCCCCCCCCCCCCCC(=O)O)C(=O)O)C(=O)NCC(=O)NCC(=O)N[C@@H](CO)C(=O)N[C@@H](CCCCNC(=O)COCCOCCNC(=O)COCCOCCNC(=O)COCCOCCNC(=O)COCCOCCNC(=O)CC[C@H](NC(=O)CCCCCCCCCCCCCCCCCCC(=O)O)C(=O)O)C(=O)O)C(C)C [Example 19] (H-H[Aib]EGTFTSDVSSYLEEQAAREFIAWLVRGRGK([AEEA-AEEA-AEEA-AEEA-γGlu-C20 diacid])GGSK([AEEA-AEEA-AEEA-AEEA-γGlu-C20 diacid])-OH; N-terminus and C-terminus assumed) | 0.0062 nM |  |  | 142 nM | 2.4 nM
CC[C@H](C)[C@H](NC(=O)[C@H](Cc1ccccc1)NC(=O)[C@H](CCC(=O)O)NC(=O)[C@H](CCCNC(=N)N)NC(=O)[C@H](C)NC(=O)[C@H](C)NC(=O)[C@H](CCC(N)=O)NC(=O)[C@H](CCC(=O)O)NC(=O)[C@H](CCC(=O)O)NC(=O)[C@H](CC(C)C)NC(=O)[C@H](Cc1ccc(O)cc1)NC(=O)[C@H](CO)NC(=O)[C@H](CO)NC(=O)[C@@H](NC(=O)[C@H](CC(=O)O)NC(=O)[C@H](CO)NC(=O)[C@@H](NC(=O)[C@H](Cc1ccccc1)NC(=O)[C@@H](NC(=O)CNC(=O)[C@H](CCC(=O)O)NC(=O)C(C)(C)NC(=O)CCc1cnc[nH]1)[C@@H](C)O)[C@@H](C)O)C(C)C)C(=O)N[C@@H](C)C(=O)N[C@@H](Cc1c[nH]c2ccccc12)C(=O)N[C@@H](CC(C)C)C(=O)N[C@H](C(=O)N[C@@H](CCCNC(=N)N)C(=O)NCC(=O)N[C@@H](CCCNC(=N)N)C(=O)NCC(=O)N[C@@H](CCCCNC(=O)COCCOCCNC(=O)COCCOCCNC(=O)COCCOCCNC(=O)COCCOCCNC(=O)CC[C@H](NC(=O)CCCCCCCCCCCCCCCCCCC(=O)O)C(=O)O)C(=O)NCC(=O)NCC(=O)N[C@@H](CO)C(=O)N[C@@H](CCCCNC(=O)COCCOCCNC(=O)COCCOCCNC(=O)COCCOCCNC(=O)COCCOCCNC(=O)CC[C@H](NC(=O)CCCCCCCCCCCCCCCCCCC(=O)O)C(=O)O)C(=O)O)C(C)C [Example 20] (Desaminohistidyl-[Aib]EGTFTSDVSSYLEEQAAREFIAWLVRGRGK([AEEA-AEEA-AEEA-AEEA-γGlu-C20 diacid])GGSK([AEEA-AEEA-AEEA-AEEA-γGlu-C20 diacid])-OH; C-terminus assumed) | 0.0084 nM |  |  | 270 nM | 4.1 nM
